Measured values reported in PubChem BioAssay AID1963427 (Molecular Pharmacology Branch, DTP, NCI, 2024).

System: 317291-083-R-J1-PDC complex spheroid growth
Assay: Anticancer human tumor 317291-083-R-J1-PDC patient-derived soft tissue sarcoma cell line growth inhibition [Asc]
Conditions: for IC50: curve of first compound; for viability, T/C: stronger effect = lower value
How it was run: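 Complex solid-tumor spheroids incorporating human endothelial and mesenchymal stem cells received single agents or combinations over half-log dilution ranges anchored to clinical Cmax.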

[1] = second compound 0.0316 µM, first compound 0.0316 µM
[2] = second compound 0.0316 µM, first compound 0.1 µM
[3] = second compound 0.0316 µM, first compound 0.316 µM
[4] = second compound 0.0316 µM, first compound 1 µM
[5] = second compound 0.1 µM, first compound 0.0316 µM
[6] = second compound 0.1 µM, first compound 0.1 µM
[7] = second compound 0.1 µM, first compound 0.316 µM
[8] = second compound 0.1 µM, first compound 1 µM
[9] = second compound 0.316 µM, first compound 0.0316 µM
[10] = second compound 0.316 µM, first compound 0.1 µM
[11] = second compound 0.316 µM, first compound 0.316 µM
[12] = second compound 0.316 µM, first compound 1 µM
[13] = second compound 1 µM, first compound 0.0316 µM
[14] = second compound 1 µM, first compound 0.1 µM
[15] = second compound 1 µM, first compound 0.316 µM
[16] = second compound 1 µM, first compound 1 µM
[17] = second compound 3.16 µM, first compound 0.0316 µM
[18] = second compound 3.16 µM, first compound 0.1 µM
[19] = second compound 3.16 µM, first compound 0.316 µM
[20] = second compound 3.16 µM, first compound 1 µM
[21] = second compound 10 µM, first compound 0.0316 µM
[22] = second compound 10 µM, first compound 0.1 µM
[23] = second compound 10 µM, first compound 0.316 µM
[24] = second compound 10 µM, first compound 1 µM
[25] = second compound 0.0316 µM, first compound 0.00316 µM
[26] = second compound 0.0316 µM, first compound 0.01 µM
[27] = second compound 0.1 µM, first compound 0.00316 µM
[28] = second compound 0.1 µM, first compound 0.01 µM
[29] = second compound 0.316 µM, first compound 0.00316 µM
[30] = second compound 0.316 µM, first compound 0.01 µM
[31] = second compound 1 µM, first compound 0.00316 µM
[32] = second compound 1 µM, first compound 0.01 µM
[33] = second compound 3.16 µM, first compound 0.00316 µM
[34] = second compound 3.16 µM, first compound 0.01 µM
[35] = second compound 10 µM, first compound 0.00316 µM
[36] = second compound 10 µM, first compound 0.01 µM
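Further: compound exposure lasted seven days after spheroids formed for three days.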
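Wherever viability, T/C is given: 100% = DMSO vehicle control wells.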

How did the IC50 (second compound 0.0316 µM) turn out when `C=CC(=O)N1CCN(c2nc(=O)n(-c3c(C)ccnc3C(C)C)c3nc(-c4c(O)cccc4F)c(F)cc23)C(C)C1` (stereo unspecified) + Cc1c(S(C)(=O)=O)c(-c2cc(F)cc(N3CCN(c4ccc(NS(=O)(=O)c5ccc(NC(CCN6CCC(C(=O)OCCCP(=O)(O)O)CC6)CSc6ccccc6)c(S(=O)(=O)C(F)(F)F)c5)cc4)CC3)c2)c(-c2ccc(Cl)cc2)n1C(C)C was run?
Its IC50 is over 10000 nM.

What about the IC50 (second compound 0.1 µM) of the same molecule?
Its IC50 is over 10000 nM.

What about the IC50 (second compound 0.316 µM) of the same molecule?
The IC50 was over 10000 nM.

What about the IC50 (second compound 1 µM) of the same molecule?
The IC50 was over 10000 nM.

What about the IC50 (second compound 3.16 µM) of the same molecule?
The IC50 was 8050 nM.

What about the IC50 (second compound 10 µM) of the same molecule?
Its IC50 is 9460 nM.

What about the viability, T/C [1] of the same molecule?
The viability, T/C was 108%.

What about the viability, T/C [2] of the same molecule?
The viability, T/C was 86.8%.

And the viability, T/C [3]?
The viability, T/C was 108%.

And the viability, T/C [4]?
Its viability, T/C is 98.3%.

And the viability, T/C (second compound 0.0316 µM, first compound 3.16 µM)?
The viability, T/C was 98.3%.

What about the viability, T/C (second compound 0.0316 µM, first compound 10 µM) of the same molecule?
Its viability, T/C is 66.1%.

And the viability, T/C [5]?
The viability, T/C was 84.4%.

What about the viability, T/C [6] of the same molecule?
The viability, T/C was 97.7%.

And the viability, T/C [7]?
Its viability, T/C is 86.1%.

What about the viability, T/C [8] of the same molecule?
The viability, T/C was 86.5%.

What about the viability, T/C (second compound 0.1 µM, first compound 3.16 µM) of the same molecule?
The viability, T/C was 100%.

What about the viability, T/C (second compound 0.1 µM, first compound 10 µM) of the same molecule?
Its viability, T/C is 60.1%.

What about the viability, T/C [9] of the same molecule?
The viability, T/C was 91%.

And the viability, T/C [10]?
Its viability, T/C is 102%.

And the viability, T/C [11]?
Its viability, T/C is 85.3%.

What about the viability, T/C [12] of the same molecule?
Its viability, T/C is 90.6%.

What about the viability, T/C (second compound 0.316 µM, first compound 3.16 µM) of the same molecule?
Its viability, T/C is 83.9%.

And the viability, T/C (second compound 0.316 µM, first compound 10 µM)?
Its viability, T/C is 59.7%.

And the viability, T/C [13]?
The viability, T/C was 81.5%.

What about the viability, T/C [14] of the same molecule?
Its viability, T/C is 84.3%.

What about the viability, T/C [15] of the same molecule?
The viability, T/C was 96.2%.

What about the viability, T/C [16] of the same molecule?
The viability, T/C was 80.2%.

And the viability, T/C (second compound 1 µM, first compound 3.16 µM)?
The viability, T/C was 81.7%.

And the viability, T/C (second compound 1 µM, first compound 10 µM)?
Its viability, T/C is 51.7%.

And the viability, T/C [17]?
The viability, T/C was 82.4%.

What about the viability, T/C [18] of the same molecule?
The viability, T/C was 70.7%.

And the viability, T/C [19]?
Its viability, T/C is 87.8%.

And the viability, T/C [20]?
The viability, T/C was 74.7%.

And the viability, T/C (second compound 3.16 µM, first compound 3.16 µM)?
The viability, T/C was 79.5%.

And the viability, T/C (second compound 3.16 µM, first compound 10 µM)?
The viability, T/C was 43.2%.

And the viability, T/C [21]?
The viability, T/C was 87.1%.

And the viability, T/C [22]?
The viability, T/C was 90.6%.

And the viability, T/C [23]?
Its viability, T/C is 93.2%.

What about the viability, T/C [24] of the same molecule?
The viability, T/C was 88.6%.

And the viability, T/C (second compound 10 µM, first compound 3.16 µM)?
Its viability, T/C is 96.6%.

What about the viability, T/C (second compound 10 µM, first compound 10 µM) of the same molecule?
The viability, T/C was 47.9%.

Which results are given for `COc1c(OCCCN2CCOCC2)ccc2c3n(c(=NC(=O)c4cnc(N)nc4)nc12)CCN3` + Cc1c(S(C)(=O)=O)c(-c2cc(F)cc(N3CCN(c4ccc(NS(=O)(=O)c5ccc(NC(CCN6CCC(C(=O)OCCCP(=O)(O)O)CC6)CSc6ccccc6)c(S(=O)(=O)C(F)(F)F)c5)cc4)CC3)c2)c(-c2ccc(Cl)cc2)n1C(C)C?
IC50 (second compound 0.0316 µM): 104 nM; IC50 (second compound 0.1 µM): 88 nM; IC50 (second compound 0.316 µM): 88.4 nM; IC50 (second compound 1 µM): 78 nM; IC50 (second compound 3.16 µM): 62.9 nM; IC50 (second compound 10 µM): 95.3 nM; viability, T/C [25]: 116%; viability, T/C [26]: 116%; viability, T/C [1]: 78%; viability, T/C [2]: 52.9%; viability, T/C [3]: 27%; viability, T/C [4]: 13%; viability, T/C [27]: 106%; viability, T/C [28]: 76.6%; viability, T/C [5]: 62.5%; viability, T/C [6]: 54.7%; viability, T/C [7]: 28.1%; viability, T/C [8]: 13.5%; viability, T/C [29]: 91.3%; viability, T/C [30]: 85.5%; viability, T/C [9]: 69.7%; viability, T/C [10]: 44.7%; viability, T/C [11]: 30.1%; viability, T/C [12]: 11.7%; viability, T/C [31]: 86.2%; viability, T/C [32]: 88%; viability, T/C [13]: 63.2%; viability, T/C [14]: 44.8%; viability, T/C [15]: 28.2%; viability, T/C [16]: 12.1%; viability, T/C [33]: 65.6%; viability, T/C [34]: 54.8%; viability, T/C [17]: 60.9%; viability, T/C [18]: 43.7%; viability, T/C [19]: 21.3%; viability, T/C [20]: 9.02%; viability, T/C [35]: 100%; viability, T/C [36]: 90.2%; viability, T/C [21]: 70.7%; viability, T/C [22]: 54.2%; viability, T/C [23]: 19.2%; viability, T/C [24]: 7.2%

How did the IC50 (second compound 0.0316 µM) turn out when `NC1CCC(NC2CC2c2ccccc2)CC1` (stereo unspecified) + Cc1c(S(C)(=O)=O)c(-c2cc(F)cc(N3CCN(c4ccc(NS(=O)(=O)c5ccc(NC(CCN6CCC(C(=O)OCCCP(=O)(O)O)CC6)CSc6ccccc6)c(S(=O)(=O)C(F)(F)F)c5)cc4)CC3)c2)c(-c2ccc(Cl)cc2)n1C(C)C was run?
The IC50 was over 100 nM.

And the IC50 (second compound 0.1 µM)?
The IC50 was over 100 nM.

And the IC50 (second compound 0.316 µM)?
The IC50 was over 100 nM.

What about the IC50 (second compound 1 µM) of the same molecule?
The IC50 was over 100 nM.

What about the IC50 (second compound 3.16 µM) of the same molecule?
The IC50 was over 100 nM.

And the IC50 (second compound 10 µM)?
The IC50 was over 100 nM.

What about the viability, T/C (second compound 0.0316 µM, first compound 0.000316 µM) of the same molecule?
Its viability, T/C is 120%.

What about the viability, T/C (second compound 0.0316 µM, first compound 0.001 µM) of the same molecule?
The viability, T/C was 87.3%.

What about the viability, T/C [25] of the same molecule?
Its viability, T/C is 98.2%.

And the viability, T/C [26]?
The viability, T/C was 99%.

And the viability, T/C [1]?
Its viability, T/C is 106%.

And the viability, T/C [2]?
Its viability, T/C is 86.5%.

And the viability, T/C (second compound 0.1 µM, first compound 0.000316 µM)?
The viability, T/C was 107%.

And the viability, T/C (second compound 0.1 µM, first compound 0.001 µM)?
Its viability, T/C is 78.9%.

What about the viability, T/C [27] of the same molecule?
Its viability, T/C is 90.2%.

What about the viability, T/C [28] of the same molecule?
The viability, T/C was 76.9%.

And the viability, T/C [5]?
Its viability, T/C is 77.6%.

And the viability, T/C [6]?
The viability, T/C was 83.9%.

What about the viability, T/C (second compound 0.316 µM, first compound 0.000316 µM) of the same molecule?
The viability, T/C was 93.9%.

What about the viability, T/C (second compound 0.316 µM, first compound 0.001 µM) of the same molecule?
Its viability, T/C is 100%.

What about the viability, T/C [29] of the same molecule?
Its viability, T/C is 80.2%.

And the viability, T/C [30]?
Its viability, T/C is 106%.

And the viability, T/C [9]?
The viability, T/C was 109%.

And the viability, T/C [10]?
The viability, T/C was 90.5%.

And the viability, T/C (second compound 1 µM, first compound 0.000316 µM)?
Its viability, T/C is 73.3%.

And the viability, T/C (second compound 1 µM, first compound 0.001 µM)?
Its viability, T/C is 75%.

And the viability, T/C [31]?
The viability, T/C was 93%.

What about the viability, T/C [32] of the same molecule?
The viability, T/C was 74.3%.

What about the viability, T/C [13] of the same molecule?
Its viability, T/C is 107%.

And the viability, T/C [14]?
Its viability, T/C is 74.1%.

And the viability, T/C (second compound 3.16 µM, first compound 0.000316 µM)?
Its viability, T/C is 72.7%.

And the viability, T/C (second compound 3.16 µM, first compound 0.001 µM)?
Its viability, T/C is 81.7%.

And the viability, T/C [33]?
The viability, T/C was 79%.

What about the viability, T/C [34] of the same molecule?
Its viability, T/C is 69.9%.

And the viability, T/C [17]?
Its viability, T/C is 87.6%.

What about the viability, T/C [18] of the same molecule?
The viability, T/C was 76%.

What about the viability, T/C (second compound 10 µM, first compound 0.000316 µM) of the same molecule?
Its viability, T/C is 95.6%.

What about the viability, T/C (second compound 10 µM, first compound 0.001 µM) of the same molecule?
The viability, T/C was 91.9%.

What about the viability, T/C [35] of the same molecule?
The viability, T/C was 97.8%.

What about the viability, T/C [36] of the same molecule?
The viability, T/C was 87.8%.

And the viability, T/C [21]?
Its viability, T/C is 94%.

What about the viability, T/C [22] of the same molecule?
Its viability, T/C is 73.7%.
